Consider two compounds from ChEMBL document CHEMBL1142161, “Hepatitis C virus (HCV) NS5B nonnucleoside inhibitors specifically block single-stranded viral RNA synthesis catalyzed by HCV replication complexes in vitro” (Antimicrob Agents Chemother, 2007).

pEC50: −log10 of the molar value. Calls of active or inactive are those of the source. No cut-off for these calls is given here.

Test [1] can be described thus: (§1) Inhibition of replication in Huh-9-13 cells containing Wild type HCV replicons after 72 hrs. As to conditions: Homo sapiens. Format: functional, cell-based. A general note: A replicon is a self-replicating genome or part of one, used to study replication in cells.
Test [2] in a line: Inhibition of replication in M414T cells containing mutant HCV replicons after 72 hrs. Format: functional, cell-based, Homo sapiens.
The next test has as its system Hepacivirus hominis. Kind of test: Inhibition of HCV ssRNA synthesis by crude replicase complexes prepared from Huh-9-13 cells. Format: functional.
For the next test, the species on record is Homo sapiens. The test is described as §1. It is filed as functional, cell-based.

Usually pEC50 stands for the EC50 on a negative log10 scale, so that one unit is a factor of ten. A low value points to a high EC50. For the compound `CC(C)CCn1c(=O)c(C2=NS(=O)(=O)c3ccccc3N2)c(O)c2ccccc21`, the results for the pEC50 in test [1] and in test [2] were 6.05 and below 4.50, respectively. Further, in the test with Hepacivirus hominis, the Activity result is “Dose-dependent effect”.

Regarding `O=C(N[C@@H](Cc1c[nH]c2ccccc12)C(=O)O)c1ccc2c(c1)nc(-c1ccoc1)n2C1CCCCC1`, in the test filed under Homo sapiens, the outcome was inactive. Besides, the Activity entry with Hepacivirus hominis is “Dose-dependent effect”.
